Patent US20080146500A1, “Selective Vpac2 Receptor Peptide Agonists” (priority 2004, published 2008)
Ends that are not written are not given here.

Experiments:
Normal Wistar rats = assay: Intravenous glucose tolerance test (IVGTT), serum glucose and insulin; format: in vivo, rat
Protocol: Intravenous glucose tolerance test (IVGTT): Normal Wistar rats are fasted overnight and are anesthetized prior to the experiment. A blood sampling catheter is inserted into the rats. The compound is given in the jugular vein. Blood samples are taken from the carotid artery. A blood sample is drawn immediately prior to the injection of glucose along with the compound. After the initial blood sample, glucose mixed with compound is injected intravenously (i.v.). Compound may also be injected intravenously or subcutaneously prior to the glucose challenge. A glucose challenge of 0.5 g/kg body weight is given, injecting a total of 1.5 mL vehicle with glucose and agonist per kg body weight. The peptide concentrations are varied to produce the desired dose in μg/kg. Blood samples are drawn at 2, 4, 6 and 10 minutes after giving glucose. The control group of animals receives the same vehicle along with glucose, but with no compound added. In some instances, a 30 minute post-glucose blood sample is drawn. Aprotinin is added to the blood sample (250-500 kIU/ml blood). The serum is then analyzed for glucose and insulin using standard methodologies.
The assay uses a formulated and calibrated peptide stock in PBS. Normally, this stock is a prediluted 100 μM stock. However, a more concentrated stock with approximately 1 mg agonist per 1 mL is used. The specific concentration is always known. Variability in the maximal response is mostly due to variability in the vehicle dose.

ZDF rats = assay: Glucose lowering in conscious food-deprived diabetic ZDF rats; format: in vivo, rat
Protocol: Glucose lowering in diabetic ZDF rats. ZDF rats, 8-9 weeks old with fed glucose levels of approximately 300 mg/dl are used for this experiment. The animals are randomised into control (vehicle) and treatment group(s) on the day of the experiment and are conscious throughout the experiment. The compound is injected intravenously at the start of the experiment and blood samples are drawn from the tail vein immediately prior to compound injection and then 0.5, 1, 2, 3, 4 and 24 h after compound injection. The animals are deprived of food during the first 2 or 4 h of the experiment. The blood samples are collected in EDTA tubes, aprotinin added and immediately put on ice pending insulin and glucose analysis using standard methods.

[1] = 10 μg/kg iv, 0 h (immediately prior to injection)
[2] = 10 μg/kg iv, 0.5 h after injection
[3] = 10 μg/kg iv, 1 h after injection
[4] = 10 μg/kg iv, 2 h after injection
[5] = 10 μg/kg iv, 4 h after injection (food access after 2 h)
[6] = 10 μg/kg iv, 24 h after injection (food access after 2 h)
[7] = 30 μg/kg iv, 0 h (immediately prior to injection)
[8] = 30 μg/kg iv, 0.5 h after injection
[9] = 30 μg/kg iv, 1 h after injection
[10] = 30 μg/kg iv, 2 h after injection
[11] = 30 μg/kg iv, 4 h after injection (food access after 2 h)
[12] = 30 μg/kg iv, 24 h after injection (food access after 2 h)
[13] = 100 μg/kg iv, 0 h (immediately prior to injection)
[14] = 100 μg/kg iv, 1 h after injection
[15] = 100 μg/kg iv, 2 h after injection
[16] = 100 μg/kg iv, 3 h after injection
[17] = 100 μg/kg iv, 4 h after injection
[18] = 100 μg/kg iv, 24 h after injection (food access after 4 h)

P137: PEGylated material obtained from P120 and methoxy-PEG2-MAL-40K (HSDAVFTDNYTRLRKQVAAKKYLQSIKNKRYGGPSSGAPPPC; also: PEGylated with methoxy-PEG2-MAL-40K, site not given here) [Agonist P137]
% increase AUC (insulin, 0-10 min after glucose) (Normal Wistar rats; Dose = 10 μg/kg iv, time between glucose & compound 0 h): +366% | % increase AUC (insulin, 0-10 min after glucose) (Normal Wistar rats; Dose = 10 μg/kg iv, time between glucose & compound 4 h): +193% | % increase AUC (insulin, 0-10 min after glucose) (Normal Wistar rats; Dose = 30 μg/kg iv, time between glucose & compound 4 h): +321% | % increase AUC (insulin, 0-10 min after glucose) (Normal Wistar rats; Dose = 100 μg/kg iv, time between glucose & compound 4 h): +487% | glucose (ZDF rats; [1]): 344 mg/dL | insulin (ZDF rats; [1]): 12.5 ng/mL | glucose (ZDF rats; [2]): 277 mg/dL | insulin (ZDF rats; [2]): 21.2 ng/mL | glucose (ZDF rats; [3]): 244 mg/dL | insulin (ZDF rats; [3]): 18.5 ng/mL | glucose (ZDF rats; [4]): 199 mg/dL | insulin (ZDF rats; [4]): 20.0 ng/mL | glucose (ZDF rats; [5]): 361 mg/dL | insulin (ZDF rats; [5]): 18.5 ng/mL | glucose (ZDF rats; [6]): 336 mg/dL | insulin (ZDF rats; [6]): 15.0 ng/mL | glucose (ZDF rats; [7]): 329 mg/dL | insulin (ZDF rats; [7]): 10.9 ng/mL | glucose (ZDF rats; [8]): 254 mg/dL | insulin (ZDF rats; [8]): 27.0 ng/mL | glucose (ZDF rats; [9]): 218 mg/dL | insulin (ZDF rats; [9]): 23.7 ng/mL | glucose (ZDF rats; [10]): 156 mg/dL | insulin (ZDF rats; [10]): 23.1 ng/mL | glucose (ZDF rats; [11]): 347 mg/dL | insulin (ZDF rats; [11]): 20.8 ng/mL | glucose (ZDF rats; [12]): 347 mg/dL | insulin (ZDF rats; [12]): 16.0 ng/mL | glucose (ZDF rats; [13]): 307 mg/dL | insulin (ZDF rats; [13]): 17.8 ng/mL | glucose (ZDF rats; [14]): 362 mg/dL | insulin (ZDF rats; [14]): 19.9 ng/mL | glucose (ZDF rats; [15]): 360 mg/dL | insulin (ZDF rats; [15]): 15.9 ng/mL | glucose (ZDF rats; [16]): 323 mg/dL | insulin (ZDF rats; [16]): 15.4 ng/mL | glucose (ZDF rats; [17]): 304 mg/dL | insulin (ZDF rats; [17]): 15.1 ng/mL | glucose (ZDF rats; [18]): 400 mg/dL | insulin (ZDF rats; [18]): 11.1 ng/mL
